Test results taken from US12594276B2, “Inhibitors of human immunodeficiency virus replication” (ViiV Healthcare UK (No.5) Limited, priority 2024, dated 2026).

Legend:
[1] = system: recombinant NL4-3 virus (nef section replaced with Renilla luciferase gene) in MT-2 cells; assay: HIV cell culture assay (antiviral activity, luciferase readout); type: cell-based; conditions: Renilla, NL43, MT-2 cells infected for 4-5 days with recombinant NL4-3 Renilla luciferase virus
Method in brief: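 293T transfection → virus harvest at 2-3 d → titer in MT-2 by luciferase. MT-2 + virus + serial cpd dilutions, 4-5 d. Live-cell luciferase read; EC50 by median effect fit.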

[2] = Compound cytotoxicity, XTT-based colorimetric assay; type: cell-based; conditions: human; uninfected MT2 cells, day 4, XTT; read-out: CC50
Method in brief: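 Uninfected MT2 cells were treated with compound under the same protocol as the antiviral assay. Viability was read on day 4 with an XTT colorimetric assay, from which CC50 values were derived.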

Row | Structure (SMILES) | EC50 [1] [pM] | CC50 at 4 days [2] [pM]
1 | Cc1cc(C2CCC(F)(F)CC2)nc2nc([C@H](Cc3cc(F)cc(F)c3)NC(=O)Cn3nc(C(F)F)c4c3C(F)(F)[C@@H]3C[C@H]43)n(-c3ccc(Cl)c4c(NS(C)(=O)=O)nn(CCN5CC6C(C5)C6(F)F)c34)c(=O)c12 (stereo partly drawn) [Example 312, N-[(1S)-1-[(3P)-3-[4-chloro-1-(2-{6,6-difluoro-3-azabicyclo[3.1.0]hexan-3-yl}ethyl)-3-methanesulfonamido-1H-indazol-7-yl]-7-(4,4-difluorocyclohexyl)-5-methyl-4-oxo-3H,4H-pyrido[2,3-d]pyrimidin-2-yl]-2-(3,5-difluorophenyl)ethyl]-2-[(2S,4R)-9-(difluoromethyl)-5,5-difluoro-7,8-diazatricyclo[4.3.0.0^2,^4]nona-1(6),8-dien-7-yl]acetamide] | 21 | > 50000
2 | Cc1cc(C2CCC(F)(F)CC2)nc2nc([C@H](Cc3cc(F)cc(F)c3)NC(=O)Cn3nc(C(F)F)c4c3C(F)(F)[C@@H]3C[C@H]43)n(-c3ccc(Cl)c4c(NS(C)(=O)=O)nn(CCN5CCCC(F)(F)C5)c34)c(=O)c12 (atropisomer, axis not shown; (P)) [Example 14, N-[(1S)-1-[(3P)-3-{4-chloro-1-[2-(3,3-difluoropiperidin-1-yl)ethyl]-3-methanesulfonamido-1H-indazol-7-yl}-7-(4,4-difluorocyclohexyl)-5-methyl-4-oxo-3H,4H-pyrido[2,3-d]pyrimidin-2-yl]-2-(3,5-difluorophenyl)ethyl]-2-[(2S,4R)-9-(difluoromethyl)-5,5-difluoro-7,8-diazatricyclo[4.3.0.0^2,^4]nona-1(6),8-dien-7-yl]acetamide] | 9 | > 50000
3 | Cc1cc(C2CCC(F)(F)CC2)nc2nc([C@H](Cc3cc(F)cc(F)c3)NC(=O)Cn3nc(C4CC4)c4c3C[C@@H]3C[C@H]43)n(-c3ccc(Cl)c4c(NS(C)(=O)=O)nn(CCN5C[C@@H](F)C[C@H](F)C5)c34)c(=O)c12 (atropisomer, axis not shown; (P)) [Example 444, N-[(1S)-1-[(3P)-3-(4-chloro-1-{2-[(3S,5S)-3,5-difluoropiperidin-1-yl]ethyl}-3-methanesulfonamido-1H-indazol-7-yl)-7-(4,4-difluorocyclohexyl)-5-methyl-4-oxo-3H,4H-pyrido[2,3-d]pyrimidin-2-yl]-2-(3,5-difluorophenyl)ethyl]-2-[(2S,4S)-9-cyclopropyl-7,8-diazatricyclo[4.3.0.0^2,^4]nona-1(6),8-dien-7-yl]acetamide] | 9 | > 20000
4 | COCCCn1nc(NS(C)(=O)=O)c2c(Cl)ccc(-n3c([C@H](Cc4cc(F)cc(F)c4)NC(=O)Cn4nc(C(F)F)c5c4C(F)(F)[C@@H]4C[C@H]54)nc4nc(C5CCC(F)(F)CC5)cc(NC[C@@H]5CCCOC5)c4c3=O)c21 (atropisomer, axis not shown; (P)) [Example 428, N-[(1S)-1-[(3P)-3-[4-chloro-3-methanesulfonamido-1-(3-methoxypropyl)-1H-indazol-7-yl]-7-(4,4-difluorocyclohexyl)-5-({[(3S)-oxan-3-yl]methyl}amino)-4-oxo-3H,4H-pyrido[2,3-d]pyrimidin-2-yl]-2-(3,5-difluorophenyl)ethyl]-2-[(2S,4R)-9-(difluoromethyl)-5,5-difluoro-7,8-diazatricyclo[4.3.0.0^2,^4]nona-1(6),8-dien-7-yl]acetamide] | 20 | > 20000
5 | Cc1cc(C2CCC(F)(F)CC2)nc2nc([C@H](Cc3cc(F)cc(F)c3)NC(=O)Cn3nc(C4CC4)c4c3C[C@@H]3C[C@H]43)n(-c3ccc(Cl)c4c(NS(C)(=O)=O)nn([C@H](C)C(=O)N5C[C@@H](C)O[C@@H](C)C5)c34)c(=O)c12 (relative stereo) [Example 679, N-[(1S)-1-[(3P)-3-{4-chloro-1-[(2R)-1-[(2R,6S)-2,6-dimethylmorpholin-4-yl]-1-oxopropan-2-yl]-3-methanesulfonamido-1H-indazol-7-yl}-7-(4,4-difluorocyclohexyl)-5-methyl-4-oxo-3H,4H-pyrido[2,3-d]pyrimidin-2-yl]-2-(3,5-difluorophenyl)ethyl]-2-[(2R*,4R*)-9-cyclopropyl-7,8-diazatricyclo[4.3.0.0^2,^4]nona-1(6),8-dien-7-yl]acetamide] | 12 | > 20000
6 | Cc1cc(C2(F)CCC(F)(F)CC2)nc2nc([C@H](Cc3cc(F)cc(F)c3)NC(=O)Cn3nc(C4CC4)c4c3C(F)(F)[C@@H]3C[C@H]43)n(-c3ccc(Cl)c4c(NS(C)(=O)=O)nn(CCN5C[C@@H](C)O[C@@H](C)C5)c34)c(=O)c12 (atropisomer, axis not shown; (P)) [Example 595, N-[(1S)-1-[(3P)-3-(4-chloro-1-{2-[(2R,6S)-2,6-dimethylmorpholin-4-yl]ethyl}-3-methanesulfonamido-1H-indazol-7-yl)-5-methyl-4-oxo-7-(1,4,4-trifluorocyclohexyl)-3H,4H-pyrido[2,3-d]pyrimidin-2-yl]-2-(3,5-difluorophenyl)ethyl]-2-[(2S,4R)-9-cyclopropyl-5,5-difluoro-7,8-diazatricyclo[4.3.0.0^2,^4]nona-1(6),8-dien-7-yl]acetamide] | 14 | > 20000
7 | C[C@@H]1CN(CCn2nc(NS(C)(=O)=O)c3c(Cl)ccc(-n4c([C@H](Cc5cc(F)cc(F)c5)NC(=O)Cn5nc(C(F)F)c6c5C(F)(F)[C@@H]5C[C@H]65)nc5nc(C6CCC(F)(F)CC6)cc(CN6C[C@@H](C)O[C@@H](C)C6)c5c4=O)c32)C[C@H](C)O1 (atropisomer, axis not shown; (P)) [Example 528, N-[(1S)-1-[(3P)-3-(4-chloro-1-{2-[(2R,6S)-2,6-dimethylmorpholin-4-yl]ethyl}-3-methanesulfonamido-1H-indazol-7-yl)-7-(4,4-difluorocyclohexyl)-5-{[(2R,6S)-2,6-dimethylmorpholin-4-yl]methyl}-4-oxo-3H,4H-pyrido[2,3-d]pyrimidin-2-yl]-2-(3,5-difluorophenyl)ethyl]-2-[(2S,4R)-9-(difluoromethyl)-5,5-difluoro-7,8-diazatricyclo[4.3.0.0^2,^4]nona-1(6),8-dien-7-yl]acetamide] | 6 | > 20000
8 | COCCCn1nc(NS(C)(=O)=O)c2c(Cl)ccc(-n3c([C@H](Cc4cc(F)cc(F)c4)NC(=O)Cn4nc(C(F)F)c5c4C(F)(F)[C@@H]4C[C@H]54)nc4nc(C5CCC(F)(F)CC5)ccc4c3=O)c21 (atropisomer, axis not shown; (P)) [Example 623, N-[(1S)-1-[(3P)-3-[4-chloro-3-methanesulfonamido-1-(3-methoxypropyl)-1H-indazol-7-yl]-7-(4,4-difluorocyclohexyl)-4-oxo-3H,4H-pyrido[2,3-d]pyrimidin-2-yl]-2-(3,5-difluorophenyl)ethyl]-2-[(2S,4R)-9-(difluoromethyl)-5,5-difluoro-7,8-diazatricyclo[4.3.0.0^2,^4]nona-1(6),8-dien-7-yl]acetamide] | 12 | > 100000
9 | COCCCn1nc(NS(C)(=O)=O)c2c(Cl)ccc(-n3c([C@H](Cc4cc(F)cc(F)c4)NC(=O)Cn4nc(C(F)F)c5c4C(F)(F)[C@@H]4C[C@H]54)nc4nc(C5CCC(F)(F)CC5)cc(NCCC#N)c4c3=O)c21 (atropisomer, axis not shown; (P)) [Example 433, N-[(1S)-1-[(3P)-3-[4-chloro-3-methanesulfonamido-1-(3-methoxypropyl)-1H-indazol-7-yl]-5-[(2-cyanoethyl)amino]-7-(4,4-difluorocyclohexyl)-4-oxo-3H,4H-pyrido[2,3-d]pyrimidin-2-yl]-2-(3,5-difluorophenyl)ethyl]-2-[(2S,4R)-9-(difluoromethyl)-5,5-difluoro-7,8-diazatricyclo[4.3.0.0^2,^4]nona-1(6),8-dien-7-yl]acetamide] | 37 | > 20000
10 | Cc1cc(C2CCC(F)(F)CC2)nc2nc([C@H](Cc3cc(F)cc(F)c3)NC(=O)Cn3nc(C(F)F)c4c3C(F)(F)[C@@H]3C[C@H]43)n(-c3ccc(Cl)c4c(NS(C)(=O)=O)nn(CCN5CC(F)(F)C(F)(F)C5)c34)c(=O)c12 (atropisomer, axis not shown; (P)) [Example 247, N-[(1S)-1-[(3P)-3-{4-chloro-3-methanesulfonamido-1-[2-(3,3,4,4-tetrafluoropyrrolidin-1-yl)ethyl]-1H-indazol-7-yl}-7-(4,4-difluorocyclohexyl)-5-methyl-4-oxo-3H,4H-pyrido[2,3-d]pyrimidin-2-yl]-2-(3,5-difluorophenyl)ethyl]-2-[(2S,4R)-9-(difluoromethyl)-5,5-difluoro-7,8-diazatricyclo[4.3.0.0^2,^4]nona-1(6),8-dien-7-yl]acetamide] | 47 | > 50000
11 | COCCCn1nc(NS(C)(=O)=O)c2c(Cl)ccc(-n3c([C@H](Cc4cc(F)cc(F)c4)NC(=O)Cn4nc(C(F)F)c5c4C(F)(F)[C@@H]4C[C@H]54)nc4nc(C5CCC(F)(F)CC5)cc(NCCNC(C)=O)c4c3=O)c21 (atropisomer, axis not shown; (P)) [Example 432, N-[(1S)-1-[(3P)-3-[4-chloro-3-methanesulfonamido-1-(3-methoxypropyl)-1H-indazol-7-yl]-7-(4,4-difluorocyclohexyl)-5-[(2-acetamidoethyl)amino]-4-oxo-3H,4H-pyrido[2,3-d]pyrimidin-2-yl]-2-(3,5-difluorophenyl)ethyl]-2-[(2S,4R)-9-(difluoromethyl)-5,5-difluoro-7,8-diazatricyclo[4.3.0.0^2,^4]nona-1(6),8-dien-7-yl]acetamide] | 182 | > 20000
